Reference: patent publication US20250122182A1 (Isosterix, Inc., priority 2023, published 2025)

Target: Recombinant KAT6A/MOZ (488-778) protein (Homo sapiens (Human), UniProt Q92794)
Assay: KAT6A AlphaLISA Inhibition Screening Assay
Assay type: biochemical
Details: for inhibition at 1 µM: read-out: Average Kat6A % inhibition @ 1 μM; for inhibition at 10 µM: read-out: Average Kat6A % inhibition @ 10 μM
Procedure: The Kat6a inhibitory activity of test compounds was determined using an Alpha Screen-based detection method. The assay reactions were conducted in a volume of 10 μL in Alpha Plate, White 384 well plate (cat #6008280, Perkin Elmer). The enzymatic reactions were performed in assay buffer pH 8.0 (50 mM Tris-HCl, 0.1 mM EDTA, 0.01% Tween-20, 1 mM Dithiothreitol, 0.1% BSA (fatty acid free) and 330 nM TSA (Trichostatin A)). 10 μL reaction volume consisting of 25 nM of Recombinant KAT6A/MOZ (488-778) protein (Active motif, Catalog #81223), 400 nM Acetyl coenzyme A (Catalog #A2056, Sigma), 200 nM of Histone H3 peptide [(amino acids 1-21), biotin-labeled (BPS Biosciences, Catalog #52011)]. Test compounds were screened at different doses starting with 10 μM, 3 fold dilution and 10 point Dose response curve. Enzyme and compounds solution were pre-incubated in assay plate for 60 or 10 min at room temperature then substrate and Acetyl coenzyme A solution were added to the plate. After addition, the plate was sealed with adhesive seals and incubated for 120 minutes at room temperature.
After 120 minutes of incubation, […] of AlphaLISA anti-acetyl-Lysine acceptor beads (Perkin Elmer, Catalog #AL143C) were added to the plate and it was incubated for 60 minutes at room temperature. Then […] of Alpha Streptavidin donor beads (Perkin Elmer, Catalog #6760002S) were added to the plate which was further incubated for 60 minutes at room temperature. After incubation, the alpha signal was recorded by using Perkin Elmer Envision multi-mode reader. Percent inhibition of enzyme activity by test compounds were determined relative to vehicle control.

Chain of Recombinant KAT6A/MOZ (488-778) protein (Q92794 488-778): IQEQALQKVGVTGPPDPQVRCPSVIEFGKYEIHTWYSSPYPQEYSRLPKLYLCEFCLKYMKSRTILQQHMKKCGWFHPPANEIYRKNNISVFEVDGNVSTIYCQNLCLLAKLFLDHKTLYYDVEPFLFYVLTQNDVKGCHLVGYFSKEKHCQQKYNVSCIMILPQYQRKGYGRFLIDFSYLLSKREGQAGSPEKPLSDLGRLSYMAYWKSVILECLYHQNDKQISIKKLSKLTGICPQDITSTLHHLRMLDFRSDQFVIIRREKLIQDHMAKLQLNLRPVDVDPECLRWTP

Row | Compound | inhibition at 1 µM (1 μM test compound) | inhibition at 10 µM (10 μM test compound) | Average Kat6A % inhibition @ 1 μM (1 μM test compound) | Average Kat6A % inhibition @ 10 μM (10 μM test compound)
1 | CCc1ccc(OC)c(S(=O)(=O)Nc2noc3cc(Cn4cc(CNC(=O)[C@@H](C)F)cn4)cc(OC)c23)c1 (single isomer, unassigned) [Syn. Ex. 47a] | 100% | 100% |  | 
2 | CCc1ccc(OC)c(S(=O)(=O)Nc2noc3cc(Cn4cc(CNC(=O)[C@H](C)F)cn4)cc(OC)c23)c1 (single isomer, unassigned) [Syn. Ex. 47b] | 96% | 100% |  | 
3 | C#CC(=O)N1Cc2cnn(Cc3cc(OC)c4c(NS(=O)(=O)c5cc(Cl)ccc5OC)noc4c3)c2C1 [Syn. Ex. 1, 5-chloro-2-methoxy-N-(4-methoxy-6-((5-propioloyl-5,6-dihydropyrrolo[3,4-c]pyrazol-1(4H)-yl)methyl)benzo[d]isoxazol-3-yl)benzenesulfonamide] | 100% | 100% |  | 
4 | C#CC(=O)N1Cc2cn(Cc3cc(OC)c4c(NS(=O)(=O)c5cc(Cl)ccc5OC)noc4c3)nc2C1 [Syn. Ex. 2, 5-chloro-2-methoxy-N-(4-methoxy-6-((5-propioloyl-5,6-dihydropyrrolo[3,4-c]pyrazol-2(4H)-yl)methyl)benzo[d]isoxazol-3-yl)benzenesulfonamide] | 71% | 100% |  | 
5 | CCC(=O)N1Cc2cnn(Cc3cc(OC)c4c(NS(=O)(=O)c5ccccc5OC)noc4c3)c2C1 [Syn. Ex. 3, 2-methoxy-N-(4-methoxy-6-((5-propionyl-5,6-dihydropyrrolo[3,4-c]pyrazol-1(4H)-yl)methyl)benzo[d]isoxazol-3-yl)benzenesulfonamide] | 100% | 100% |  | 
6 | C#CC(=O)N1Cc2cnn(Cc3cc(OC)c4c(NS(=O)(=O)c5cc(OC)ccc5OC)noc4c3)c2C1 [Syn. Ex. 4, 2,5-dimethoxy-N-(4-methoxy-6-((5-propioloyl-5,6-dihydropyrrolo[3,4-c]pyrazol-1(4H)-yl)methyl)benzo[d]isoxazol-3-yl)benzenesulfonamide] | 100% | 100% |  | 
7 | C#CC(=O)N1Cc2cn(Cc3cc(OC)c4c(NS(=O)(=O)c5cc(OC)ccc5OC)noc4c3)nc2C1 [Syn. Ex. 5, 2,5-dimethoxy-N-(4-methoxy-6-((5-propioloyl-5,6-dihydropyrrolo[3,4-c]pyrazol-2(4H)-yl)methyl)benzo[d]isoxazol-3-yl)benzenesulfonamide] | 83% | 100% |  | 
8 | COc1ccccc1S(=O)(=O)Nc1noc2cc(Cn3cc(CNS(C)(=O)=O)cn3)cc(OC)c12 [Syn. Ex. 6, 2-methoxy-N-(4-methoxy-6-((4-(methylsulfonamidomethyl)-1H-pyrazol-1-yl)methyl)benzo[d]isoxazol-3-yl) benzenesulfonamide] |  |  | 99% | 100%
9 | CCc1ccc(OC)c(S(=O)(=O)Nc2noc3cc(Cn4cc(CNC(C)=O)cn4)cc(OC)c23)c1 [Syn. Ex. 8, N-((1-((3-((5-ethyl-2-methoxyphenyl)sulfonamido)-4-methoxybenzo[d]isoxazol-6-yl)methyl)-1H-pyrazol-4-yl)methyl) acetamide] | 99% | 100% |  | 
10 | C#CC(=O)N1CCc2cnn(Cc3cc(OC)c4c(NS(=O)(=O)c5cc(CC)ccc5OC)noc4c3)c2CC1 [Syn. Ex. 9, 5-ethyl-2-methoxy-N-(4-methoxy-6-((6-propioloyl-5,6,7,8-tetrahydropyrazolo[3,4-d]azepin-1(4H)-yl)methyl)benzo[d]isoxazol-3-yl)benzenesulfonamide] | 61% | 100% |  | 
11 | COc1ccc(S(=O)(=O)Nc2noc3cc(Cn4cc(CNS(C)(=O)=O)cn4)cc(OC)c23)c(OC)c1 [Syn. Ex. 10, 2,4-dimethoxy-N-(4-methoxy-6-((4-(methylsulfonamidomethyl)-1H-pyrazol-1-yl)methyl)benzo[d]isoxazol-3-yl)benzenesulfonamide] | 100% | 100% |  | 
12 | CC#CC(=O)N1Cc2cnn(Cc3cc(OC)c4c(NS(=O)(=O)c5cc(CC)ccc5OC)noc4c3)c2C1 [Syn. Ex. 11, N-(6-((5-(but-2-ynoyl)-5,6-dihydropyrrolo[3,4-c]pyrazol-1(4H)-yl)methyl)-4-methoxybenzo[d]isoxazol-3-yl)-5-ethyl-2-methoxybenzenesulfonamide] | 100% | 100% |  | 
13 | CC#CC(=O)N1Cc2cn(Cc3cc(OC)c4c(NS(=O)(=O)c5cc(CC)ccc5OC)noc4c3)nc2C1 [Syn. Ex. 12, N-(6-((5-(but-2-ynoyl)-5,6-dihydropyrrolo[3,4-c]pyrazol-2(4H)-yl)methyl)-4-methoxybenzo[d]isoxazol-3-yl)-5-ethyl-2-methoxybenzenesulfonamide] | 38% | 97% |  | 
14 | C=C(F)C(=O)N1Cc2cnn(Cc3cc(OC)c4c(NS(=O)(=O)c5cc(CC)ccc5OC)noc4c3)c2C1 [Syn. Ex. 13, 5-ethyl-N-(6-((5-(2-fluoroacryloyl)-5,6-dihydropyrrolo[3,4-c]pyrazol-1(4H)-yl)methyl)-4-methoxybenzo[d]isoxazol-3-yl)-2-methoxybenzenesulfonamide] | 99% | 100% |  | 
15 | CCOC(=O)NCc1cnn(Cc2cc(OC)c3c(NS(=O)(=O)c4cc(CC)ccc4OC)noc3c2)c1 [Syn. Ex. 16, ethyl ((1-((3-((5-ethyl-2-methoxyphenyl)sulfonamido)-4-methoxybenzo[d]isoxazol-6-yl)methyl)-1H-pyrazol-4-yl)methyl)carbamate] | 98% | 98% |  | 
16 | CCc1ccc(OC)c(S(=O)(=O)Nc2noc3cc(Cn4cc(CNC(=O)OC)cn4)cc(OC)c23)c1 [Syn. Ex. 17, methyl ((1-((3-((5-ethyl-2-methoxyphenyl)sulfonamido)-4-methoxybenzo[d]isoxazol-6-yl)methyl)-1H-pyrazol-4-yl)methyl)carbamate] | 99% | 100% |  | 
17 | CCc1ccc(OC)c(S(=O)(=O)Nc2noc3cc(Cn4cc(CNS(=O)(=O)CCOC)cn4)cc(OC)c23)c1 [Syn. Ex. 18, 5-ethyl-2-methoxy-N-(4-methoxy-6-((4-(((2-methoxyethyl)sulfonamido)methyl)-1H-pyrazol-1-yl)methyl)benzo[d]isoxazol-3-yl)benzenesulfonamide] | 97% | 98% |  | 
18 | COc1cc(C)c(C)cc1S(=O)(=O)Nc1noc2cc(Cn3cc(CNS(C)(=O)=O)cn3)cc(OC)c12 [Syn. Ex. 20, 2-methoxy-N-(4-methoxy-6-((4-(methylsulfonamidomethyl)-1H-pyrazol-1-yl)methyl)benzo[d]isoxazol-3-yl)-4,5-dimethylbenzenesulfonamide] | 100% | 100% |  | 
19 | C#CC(=O)NCc1cnn(Cc2cc(OC)c3c(NS(=O)(=O)c4cc(Cl)c(C)cc4OC)noc3c2)c1 [Syn. Ex. 21, N-((1-((3-((5-chloro-2-methoxy-4-methylphenyl)sulfonamido)-4-methoxybenzo[d]isoxazol-6-yl)methyl)-1H-pyrazol-4-yl)methyl)propiolamide] | 100% | 99% |  | 
20 | COc1cc(C)c(Cl)cc1S(=O)(=O)Nc1noc2cc(Cn3cc(CNS(C)(=O)=O)cn3)cc(OC)c12 [Syn. Ex. 22, 5-chloro-2-methoxy-N-(4-methoxy-6-((4-(methylsulfonamidomethyl)-1H-pyrazol-1-yl)methyl)benzo[d]isoxazol-3-yl)-4-methylbenzenesulfonamide] | 100% | 100% |  | 
